With O=C1NC(=O)c2c(Cl)cccc21 the melting point was 236 to 238 °C. In the case of CC(C)NC(=O)Nc1nc2nc(N)ncc2cc1-c1c(Cl)cccc1Cl, the melting point was 184 to 188 °C. With CCSc1ccc([N+](=O)[O-])c(N)c1 the melting point was 75 to 76 °C. With CCNc1ccc(S(=O)c2ccccc2)cc1[N+](=O)[O-] (stereo unspecified) the melting point was 122 to 124 °C. CC1C(=O)NC2=NC=CCN21 (stereo unspecified) showed a melting point of 212 °C. With Cn1c(COc2ccc(CC3SC(=O)NC3=O)cc2)nc2ccc(Oc3ccc(NC(=O)c4cccc(Cl)c4)cc3)cc21 (stereo unspecified) the melting point was 238 to 239 °C. Molecule CP(=O)(CCl)C1CCCCC1 (stereo unspecified) has a melting point of 51 to 53 °C. For CC(C)CCOc1c(-c2ccc(S(N)(=O)=O)cc2)cnn(-c2cccc(Cl)c2)c1=O, the melting point was 137 to 139 °C. Molecule CC(=O)N1CCC(c2nc3n(C4CCCC4)[nH]c(C)c-3c(=O)n2)CC1 has a melting point of 176 to 178 °C. Work on O=C(Nc1nccs1)C(CC1CCCC1)c1ccc(Cl)c(Cl)c1 (stereo unspecified) yielded a melting point of 120 to 122 °C. OCC1OC(n2cnc3c(NN4CCCCC4)nc(F)nc32)C(O)C1O (stereo unspecified) gave a melting point of 197 to 199 °C. In the case of CCOC(=O)c1c(N)c2cccnc2n(CC(C)C)c1=O, the melting point was 157 to 159 °C. With COc1cc(N=c2scc(-c3ccc(Cl)c(S(=O)(=O)N(C)C)c3)n2C)cc(OC)c1OC the melting point was 119 to 122 °C. Work on Oc1ccc(C=C2c3ccccc3CCc3ccccc32)cc1O yielded a melting point of 138 °C. CCn1cc(C(=O)O)c2nc3c(C)cccc3cc2c1=O gave a melting point of 251 to 253 °C. In the case of CC(=O)ONC(=N)c1ccc(-c2nc(C)c(C(=O)NC(C)C(O)(Cn3cncn3)c3ccc(F)cc3F)s2)cc1 (stereo unspecified), the melting point was 146 to 147 °C. Work on Cc1ccc(CO)cc1NC(=O)c1cccc([N+](=O)[O-])c1 yielded a melting point of 198 to 200 °C. In the case of Cc1nc(NC(=O)c2ccccc2S(C)(=O)=O)sc1C(=O)NCc1ccccc1, the melting point was 239 to 242 °C. With CC(C)(C)C(O)(COc1ccc(F)cc1)C(C)(F)n1cncn1 (stereo unspecified) the melting point was 90 to 93 °C. CS(=O)(=O)Nc1ccc([N+](=O)[O-])cc1Br gave a melting point of 148 to 151 °C. With C=CCN(CC=C)c1nc(NC(=O)c2ccco2)n2oc(=O)nc2n1 the melting point was 159 to 162 °C. In the case of N#Cc1cnc2cc(-c3ccc(C=O)cc3)sc2c1Cl, the melting point was 300 to 305 °C. Molecule CSc1cc(C)nc(SC)c1NC(=O)CCl has a melting point of 190 to 192 °C. For CCCC(=O)Nc1n[nH]c2c(F)c(F)ccc12, the melting point was 191 °C. For CCCc1c(C(=O)O)c(C(F)F)nc(C(F)(F)F)c1C(=O)O, the melting point was 236 °C. Work on Cc1ccc(N=c2scc(-c3ccc(Cl)c(S(=O)(=O)N(C)C)c3)n2C)c(C)c1 yielded a melting point of 152 to 154 °C. With Fc1ccc(-c2ncn(C3CCNCC3)c2-c2ccnc(Oc3ccc4c(c3)OCO4)n2)cc1 the melting point was 131 to 132 °C. In the case of Cc1cc(C)c2c(n1)CCCC2=O, the melting point was 54 to 57 °C. CNC(=C[N+](=O)[O-])NCCSCc1ncccc1OC showed a melting point of 146 to 147 °C. CCOC(=O)c1cnc2c3c(ccc2c1)C(=O)CC=N3 gave a melting point of 250 to 252 °C. CCOC(=O)NNC(=O)Cc1c(C)cc(C)cc1C showed a melting point of 184 to 186 °C. With Nc1cc(Oc2ccncc2)ccc1[N+](=O)[O-] the melting point was 170 to 175 °C. Cc1ccccc1C(N)=CC#N gave a melting point of 111 to 113 °C. In the case of CN1C(=O)[C@H](NC(=O)CCc2ccc(Cl)cc2Cl)N=C(c2ccccc2)c2cc(N)ccc21, the melting point was 179 to 180 °C. Molecule COC(=O)CCSc1ccc(C=C(C)c2ccc3c(c2)C(C)(C)CCC3(C)C)cc1 has a melting point of 90 to 92 °C. Molecule CC(C#N)NC(=O)NC(C)(C)C (stereo unspecified) has a melting point of 161 to 163 °C. For O=C1CC(C(=O)O)C2(CCCCC2)C1 (stereo unspecified), the melting point was 146 to 147 °C. Molecule CN(SC(C)(C)C)C(=O)Nc1ccc(Cl)c(Cl)c1 has a melting point of 127 °C. Cc1cccc2c1C[C@H](C(=O)O)[C@@H]2C (relative stereo) gave a melting point of 132 to 135 °C. In the case of CC(C)C1COCc2nc3c(N)nc4c(c3n21)CCCC4 (stereo unspecified), the melting point was 158 to 160 °C. For Oc1ccc(Nc2nc(NCc3ccco3)nc(Nc3ccc(F)c(F)c3)n2)cc1, the melting point was 75 to 77 °C. Molecule CSc1nc(C)ccc1NC(=O)CCCCCSc1nc2ccccc2s1 has a melting point of 122 to 123 °C. In the case of O=C(O)C(Cl)(Cl)CCCCCCCCCCC#Cc1ccccc1, the melting point was 155 to 157 °C. For CCOC(=O)C(=Cc1ccccc1)S(=O)(=O)NC(=O)Nc1nc(OC)cc(OC)n1, the melting point was 140 to 143 °C. With COc1ccc2cc([C@H](C)C(=O)OCCSCCO)ccc2c1 the melting point was 58 to 61 °C. CC(=O)Nc1ccc(S(=O)c2ccccc2)cc1 (stereo unspecified) gave a melting point of 135 to 137 °C. With CC(=O)c1ccc2c(c1)Cc1ccccc1O2 the melting point was 103 to 104 °C. Molecule c1ccc2c(c1)ncc1nc(C3CCCC3)[nH]c12 has a melting point of 192 °C. In the case of CC(=O)Nc1ccc2oc3c(c2c1)CCCC3, the melting point was 196 to 198 °C. CN1CCC(N(C)c2nc(Nc3ccc(O)c(Cl)c3)nc(NC3CCCCCC3)n2)CC1 gave a melting point of 68 °C. For Cc1c(CC(=O)O)c2cc(OCc3ccccc3)ccc2n1Cc1ccc(Cl)cc1, the melting point was 140 to 142 °C. CCCCn1c(C)c(C(=O)c2ccccc2C(=O)O)c2ccccc21 gave a melting point of 88 to 92 °C. C=CCOC(=O)c1ccc(NC(=O)C(C(N)=O)c2ccc3c(c2)C(C)(C)CCC3(C)C)cc1 (stereo unspecified) gave a melting point of 210 to 211 °C. For OCc1cnoc1-c1cc(Cl)ccc1Cl, the melting point was 51 to 52 °C. COC(=O)C(C)(C)OCC#Cc1cc(C(F)(F)F)ccc1NS(=O)(=O)c1ccc2c(c1)OCCN2C showed a melting point of 98 to 100 °C. For O=C(NC(CO)CO)c1cnccc1C(F)(F)F, the melting point was 155 to 156 °C. For Cc1cc(Br)cc(C)c1NC(=O)C(C)Br (stereo unspecified), the melting point was 187 to 189 °C. In the case of Cc1cc(=O)n2cccc(OCc3ccc(Cl)cc3Br)c2n1, the melting point was 182 to 184 °C. With CC(C)(C)c1cc(C=Cc2ccccc2O)on1 the melting point was 152 to 155 °C. Cc1cccc(-c2n[nH]cc2-c2ccc(F)c(-c3c[nH]c(CCO)n3)c2)n1 gave a melting point of 219 to 220 °C. CC1(C)N=C(c2ccccc2Cl)c2cc([N+](=O)[O-])ccc2N(CCO)C1=O showed a melting point of 192 to 194 °C. O=c1[nH]c(Nc2cccc(C(F)(F)F)c2)nc2c1ncn2CCO gave a melting point of 347 to 349 °C. In the case of CCCC(C)(CO)c1cc(Cl)nnc1Cl (stereo unspecified), the melting point was 99 to 100 °C. With Nc1cc(CBr)nn1-c1c(Cl)cc(C(F)(F)F)cc1Cl the melting point was 220 °C. Molecule OC(c1ccc(F)cc1)c1ccc2noc(-c3cccc(Cl)c3)c2c1 (stereo unspecified) has a melting point of 171 °C. With CC(=O)CC(=O)c1ccc(C)nc1 the melting point was 57 to 58 °C. Cn1nc(C(=O)O)c(=O)n(-c2ccc(Cl)cc2)c1=O gave a melting point of 234 to 236 °C. Work on CCOC(=O)c1cc2cc(Cl)c(Cl)cc2[nH]1 yielded a melting point of 215 to 218 °C. Work on CC(=O)Nc1ccc(C2=NN(c3nnc(C)s3)[C@H](C)Cc3cc4c(cc32)OCO4)cc1C yielded a melting point of 267 to 269 °C. In the case of Cc1oc(-c2ccccc2)nc1CCOc1ccc(CCC2SC(=O)NC2=O)cc1 (stereo unspecified), the melting point was 151 to 152 °C. Oc1ccc2c(c1)CCCC(c1ccccc1)=C2c1ccc(OCCCl)cc1 gave a melting point of 238 to 240 °C. CC1(C)CC(=O)c2c(Nc3ccccn3)cn(-c3ccccn3)c2C1 showed a melting point of 180 to 183 °C. CCN(C(C)=O)c1cccc(-c2ccc3nnc(C)n3n2)c1 showed a melting point of 180 to 185 °C. C=CCSc1ccc(-c2ccccc2)nn1 gave a melting point of 96 to 98 °C. Work on Cc1ncc(C(=S)Nc2c(Cl)cncc2Cl)cc1OC1CCCC1 yielded a melting point of 144 to 145 °C. Molecule Cc1ccc(-c2cc(C(F)(F)F)n3cnc(-c4cccnc4)c3n2)cc1C(F)(F)F has a melting point of 236 °C. With Brc1cncc(OCc2ccc3ccccc3c2)c1 the melting point was 108 to 109 °C. Molecule O=C(OCc1ccccc1)N1CCN(c2cc(=O)[nH]cn2)CC1 has a melting point of 247 to 249 °C. O=C(O)c1ccc(F)c(Nc2ncccc2-c2ccncn2)c1 gave a melting point of 95 °C. Molecule Cc1c(-c2ccc(=O)n(C)c2)cccc1[N+](=O)[O-] has a melting point of 157 to 159 °C. In the case of CC(C)(C)OC(=O)N1CCCN(c2c(F)c(F)nc(F)c2F)CC1, the melting point was 55 to 59 °C. Molecule CC(c1ccc(-c2ccccc2)c(F)c1)c1csc(NS(C)(=O)=O)n1 (stereo unspecified) has a melting point of 128 to 129 °C. Molecule O=C1NC(=O)C(Sc2ccc3ccccc3c2Br)S1 (stereo unspecified) has a melting point of 128 to 129 °C. In the case of O=C(N[C@H]1CC[C@H](CCN2CCN(c3nccc4c3CCO4)CC2)CC1)c1ccc(N2CCCCC2)cc1, the melting point was 214 °C. CCOC(=O)CCc1sc(N)nc1-c1ccc(Cl)cc1 gave a melting point of 160 to 161 °C. COc1cc2[nH]c(=O)nc(C)c2c(C)c1OC showed a melting point of 78 to 81 °C. Molecule CC12CCC(C(=O)N(CCCCN3CCN(c4ccccn4)CC3)C1=O)C2(C)C (stereo unspecified) has a melting point of 96 to 97 °C. Molecule NC1(C(=O)NOCc2ccccc2)CCCC1 has a melting point of 94 to 96 °C. In the case of N#Cc1c(N2CCCCC2)cc(-c2cccc3ccccc23)c2c1Cc1ccccc1-2, the melting point was 148 to 149 °C. CCCCCCN(C)c1ccc(C=C2SC(=S)N(CC(=O)NC)C2=O)cc1 gave a melting point of 228 to 230 °C. With O=C(c1ccc(Cl)cc1)N1CCC(=Cc2ccc(C3=NCCO3)cc2)CC1 the melting point was 163 to 164 °C. In the case of CNC[C@@H](O)c1cc2ccccc2o1, the melting point was 88 to 90 °C. In the case of Cc1nc(N)c2nc(C)n(NC3CCOCC3)c2c1C, the melting point was 240 to 242 °C. In the case of CCCCOC(=O)COc1cc(F)ccc1C(=O)NCc1cccc([N+](=O)[O-])c1, the melting point was 80 to 81 °C. COC(C)=CC(=O)NC1CCCCCCC1 gave a melting point of 116 °C. Work on Cc1ccc(-c2ccc3c(c2)C=C(C(=O)Nc2ccc(CN4CCN(c5ncccn5)CC4)cc2)CC3)cc1 yielded a melting point of 203 to 204 °C. With Sc1nccn1Cc1ccccc1Cl the melting point was 206 to 207 °C. Molecule Cc1ccc(Cn2nnc(C(N)=O)c2N)cc1C(Cl)=C(Cl)Cl has a melting point of 196 to 197 °C. Work on CC(=O)Oc1c(C)c(C)c2c(c1C)C(=O)CC(O)(COc1ccc([N+](=O)[O-])cc1)O2 (stereo unspecified) yielded a melting point of 204 to 207 °C. For Nc1ccc2ncnc(Nc3cccc(Cl)c3)c2c1, the melting point was greater than 150 °C. Molecule N=C(Nc1cccc(NC(=O)C=Cc2ccccc2)c1)c1ccccc1 has a melting point of 115 to 117 °C. Work on NS(=O)(=O)CCCNc1nc(Cl)ncc1Cl yielded a melting point of 186 to 187 °C. For COCCOc1ccc(C=O)c(OCc2ccccc2)c1, the melting point was 67.5 to 68 °C. COc1ccc(C(=O)CBr)c2c1OCCO2 gave a melting point of 67 °C. O=C(Nc1nccs1)c1cccc(-c2ccc3c(c2)C(Oc2ccc(Cl)cc2Cl)CC3)c1 (stereo unspecified) showed a melting point of 180 to 181 °C. In the case of CC(=O)SC(CC(=O)c1ccccc1Cl)C(=O)O (stereo unspecified), the melting point was 115 to 116 °C.

Reference: a melting point compilation (Tetko et al.; mined from patent text by program, amines drawn as free bases though some values may be those of a salt)
